Measurements taken from PubChem BioAssay AID179 (DTP/NCI, 2004).
Calls of active or inactive are those of the source.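 Rule for the calls: active = compounds giving half or more protection of infected cells from virus-caused growth loss, again on retest; inactive = the rest.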

System: CEM cells HIV-1 protection, formazan growth assay
Experiment: NCI AIDS Antiviral Assay
Conditions: for IC50: measured here: growth of uninfected CEM cells
Summary of the method: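 Five concentrations of each compound were applied to infected and uninfected human CEM cells. Protection from HIV-1 was judged from growth measured with a soluble formazan assay.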

SMILES	EC50	IC50	outcome
O=C(O)COc1ccc(C(=O)/C(SS/C(C(=O)c2ccc(OCC(=O)O)c(Cl)c2Cl)=C2\C=C(c3ccccc3Cl)SS2)=C2/C=C(c3ccccc3Cl)SS2)c(Cl)c1Cl	> 35.5 µM	> 35.5 µM	–
CC(C)SC1SCC2C(=O)N(C)C3(CC3C)C(=O)OCC(NC(=O)c3nc4ccccc4cc3O)C(=O)NC(C)C(=O)N(C)C1C(=O)N(C)C1(CC1C)C(=O)OCC(NC(=O)c1nc3ccccc3cc1O)C(=O)NC(C)C(=O)N2C (stereo not drawn)	> 11.2 µM	0.00363 µM	–
NS(=O)(=O)c1ccc(N=Nc2c(O)n(-c3ccccc3)n(-c3ccccc3)c2=O)cc1	> 200 µM	79.4 µM	–
[N-]=[N+]=Nc1c(-c2ccccc2)c(=O)n(-c2ccccc2)c2ccccc12	–	–	inactive
CC1(C)Oc2ccc(C3=NO[C@@H]4C(=O)N(c5ccc(Cc6ccc(N7C(=O)[C@H]8C(c9ccc%10c(c9)OC(C)(C)O%10)=NO[C@H]8C7=O)cc6)cc5)C(=O)[C@H]34)cc2O1	> 91.2 µM	> 91.2 µM	–
CNC(=O)NCCCCC(NC(C)=O)C(=O)NCc1ccccc1 (stereo not drawn)	> 741 µM	> 741 µM	–
CCOC1OC(CO)C(O)CC1n1ccc(=O)[nH]c1=O (stereo not drawn)	> 200 µM	97.7 µM	–
N/N=c1\c2ccccc2c2cc3c(cc12)/c(=N/N)c1ccccc13	> 17 µM	> 17 µM	–
CCCCCCCCCC1CC(=O)c2c(O)cccc2O1 (stereo not drawn)	> 18.2 µM	> 18.2 µM	–
N#Cc1c(N)nc(N)nc1Nc1ccc(I)cc1	> 200 µM	23.4 µM	–
CCOP(=O)(/C=C(\Cl)c1ccccc1)OCC	> 129 µM	> 129 µM	–
CCCCCCCCCCCCCC(=O)NCC(OCC)OCC	–	–	inactive
CCSC1=N/C(=C\c2ccco2)C(Nc2ccc(C)cc2)=N1	> 50.1 µM	> 50.1 µM	–
COc1cc(OC)c(C(=O)c2cccs2)cc1N	–	–	inactive
O=C(Nc1ccccn1)Nc1cc(C(F)(F)F)ccc1Cl	> 200 µM	182 µM	–
Cc1ccc(-c2nc(C)c(C(=O)Nc3ccc(Cl)cc3)s2)cc1	> 200 µM	> 200 µM	–
C[C@H]1C[C@H]2[C@@H]3CCC4=CC(=O)C=C[C@]4(C)C3=CC[C@]2(C)[C@@]1(O)C(=O)CO	102 µM	107 µM	–
N#CNc1nc(N)c(-c2ccc(Cl)cc2)c(C(=O)Nc2ccc(Cl)c(Cl)c2)n1	–	–	inactive
COC(F)(F)C12CC3CC(CC(C3)C1)C2	–	–	inactive
Nc1nc(=S)ss1	> 200 µM	155 µM	–
Cc1nn2c(=O)[nH]cnc2c1Cl	> 229 µM	> 229 µM	–
CN1C(=O)C(=O)N2c3ccc(Cl)cc3C3(c4ccccc4)N=CC12O3 (stereo not drawn)	> 36.3 µM	5.5 µM	–

SMILES	EC50	IC50	outcome
CSCC(NP1(=O)SC(NN=C(C)C)=NC1(C)C)C(=O)O (stereo not drawn)	> 708 µM	> 708 µM	–
CCOC(=O)NNC(=O)C1CSC(c2ccccc2)N1C(C)=O (stereo not drawn)	> 200 µM	> 200 µM	–
COc1c(-c2ccccc2)oc2c(CP(=O)(OC)OC)cccc2c1=O	> 200 µM	56.2 µM	–
O=C1OC(C2Cc3ccc4c(c3C2=O)CCCC4)c2ccccc21 (stereo not drawn)	> 200 µM	33.9 µM	–
CC1(C)CC(=O)c2c(nc3c(ccc4ccccc43)c2-c2ccc(NC(=O)CCCCC(=O)Nc3ccc(-c4c5c(nc6c4ccc4ccccc46)CC(C)(C)CC5=O)cc3)cc2)C1	> 100 µM	20 µM	–
C[n+]1c2ccccc2c(NC(CCCN=C(N)N)C(=O)O)c2ccccc21 (stereo not drawn)	–	–	inactive
CCC1([N+](=O)[O-])COP(N)(=O)OC1 (stereo not drawn)	> 427 µM	31.6 µM	–
COc1cc(O)c2c(c1)C(O)C(O)CC1OC1C(=O)/C=C/CC(C)OC2=O (stereo not drawn)	> 75.9 µM	0.977 µM	–
c1cncc(CN2CCCCCC2)c1	–	–	inactive
Cc1cc(N(CCC#N)CCC#N)ccc1/C(Sc1ccccc1)=C(\NC(=O)/C=C/c1ccccc1)C(=O)Sc1ccccc1	> 21.4 µM	12.6 µM	–
COC1=C(C2(O)C(=O)N(C)c3ccccc32)C(=O)C(OC)=C(C2(O)C(=O)N(C)c3ccccc32)C1=O (stereo not drawn)	> 53.7 µM	–	–
Nc1ccccc1[S][Sn]([c]1ccccc1)([c]1ccccc1)[c]1ccccc1	> 2 µM	0.324 µM	–
Nc1nc(N)n2c(N)nnc2n1	> 200 µM	> 200 µM	–
CC1(C)OC(=O)C(=Cc2cccc(Br)c2)C(=O)O1	> 794 µM	1.86 µM	–
O=c1c2sc3ccccc3sc=2c(=O)c2c(Cl)c(Cl)c(Cl)c(Cl)c12	> 126 µM	58.9 µM	–
COC(=O)/C(=C\c1ccco1)P(=O)(OC)OC	> 200 µM	191 µM	–
C=C(c1ccccc1)C1ON(C)CCc2cc(OC)c(OC)cc21 (stereo not drawn)	> 200 µM	> 100 µM	–
CC#CC#C/C=C1\C=CC2(OC=CC2OC(C)=O)O1 (stereo not drawn)	–	–	inactive
COC(=O)CSC(=S)Nc1nnc(NC(=S)SCOC(C)=O)n1C(=S)SCC(=O)OC	> 200 µM	> 200 µM	–
O=C(N/N=C\c1ccc([N+](=O)[O-])cc1)c1ccccc1Nc1ccccc1C(=O)N/N=C/c1ccc([N+](=O)[O-])cc1	91.2 µM	> 200 µM	–
CC(=O)N1N(c2ccc([N+](=O)[O-])cc2)C(=O)C1(C)C	> 200 µM	> 200 µM	–
O=c1c2c([nH]n1-c1ccccc1)-c1ccccc1CS2	> 204 µM	135 µM	–

SMILES	EC50	IC50	outcome
Cc1nc(Nc2ccccc2[N+](=O)[O-])sc1C(=O)CC(=O)C(=O)Nc1c(C(C)C)cccc1C(C)C	> 200 µM	> 200 µM	–
COc1ccc(C(=O)/C=C/c2cccnc2)cc1OC	> 200 µM	2.75 µM	–
COC(=O)c1ccccc1/C=C1\Cc2ccc3c(c2C1=O)CCC3	> 200 µM	> 200 µM	–
CC(CC12CCC3(OO1)C(C)(C)CCCC3(C)O2)OC(=O)c1ccccc1 (stereo not drawn)	> 200 µM	18.2 µM	–
COc1cc2c(cc1Oc1c(Oc3c(O)c(OC)cc4c3C(CC(C)C)N(C)CC4)c(OC)cc3c1C(CC(C)C)N(C)CC3)C(CC(C)C)N(C)CC2 (stereo not drawn)	–	–	inactive
Cn1cc(NC(=O)c2cc(NC(=O)[C@H]3CCC(N)=N3)c[nH]2)cc1C(=O)NCCC(=N)N	–	–	active
NCCSSC/C=C\CSSCCN	–	–	inactive
CSc1cc(C(=O)Nc2ccc(C3=NCCN3)cc2)ccc1C(=O)Nc1ccc(C2=NCCN2)cc1	> 141 µM	72.4 µM	–
CCOC(=O)NC(NCC(O)c1ccccc1)(C(F)(F)F)C(F)(F)F (stereo not drawn)	> 200 µM	174 µM	–
COC(=O)C1=C(N2CCCC2)C2c3ccccc3SC12C(=O)OC (stereo not drawn)	5.75 µM	55 µM	–
O=C1/C(=C/c2ccccc2)CN(C(=O)C(F)(F)F)C/C1=C\c1ccccc1	–	–	inactive
CC(C)OP(=O)(Cc1cc(C(C)(C)C)c(O)c(C(C)(C)C)c1)OC(C)C	> 67.6 µM	> 67.6 µM	–
O=c1[nH]c2nc[nH]c2c(=O)n1C1CCCCC1	> 200 µM	> 200 µM	–
Oc1cc(F)cc2cccnc12	–	–	inactive
CO/C=N/c1cn2c(n1)CN=C2	> 200 µM	> 200 µM	–
Cc1cc(C)c(C(=O)c2c(C)cccc2C(=O)O)c(C)c1	> 200 µM	> 200 µM	–
Cc1cc(C)n2c(nc3ccccc32)c1C#N	> 200 µM	148 µM	–
COc1cc(O)c(C(C)=O)c(O)c1	> 200 µM	19.1 µM	–
CC1(Cl)CCC2(CC(Br)=CC3OC32C)CC1Br (stereo not drawn)	–	–	inactive
Nc1nc(N)c(NC(=O)CCCO)c(=O)[nH]1	> 200 µM	> 200 µM	–
N#C/C(=C\c1ccccc1)c1ccccc1F	> 200 µM	37.2 µM	–
CN(C)c1cc(CN(CCSS(=O)c2ccccc2[N+](=O)[O-])S(=O)c2ccccc2[N+](=O)[O-])nc(CN(CCSS(=O)c2ccccc2[N+](=O)[O-])S(=O)c2ccccc2[N+](=O)[O-])c1 (stereo not drawn)	> 100 µM	> 100 µM	–

SMILES	EC50	IC50	outcome
O=CC(O)C(O)C(O)C(O)COC(=O)NCCCCC(=O)C(F)(F)C(F)(F)C(F)(F)C(F)(F)C(F)(F)C(F)(F)C(F)(F)F (stereo not drawn)	> 200 µM	24 µM	–
Nc1ncnc2nc(-c3ccc(C[P+](c4ccccc4)(c4ccccc4)c4ccccc4)cc3)[nH]c12	> 200 µM	> 200 µM	–
COc1cc2c(cc1O)N=C[C@@H]1CCC(O)N1C2=O (mixture of isomers)	> 324 µM	0.575 µM	–
C/C(=N\Nc1ccccc1)C(CN(C)C)C(c1ccccc1)c1c(O)c2ccccc2oc1=O (stereo not drawn)	> 27.5 µM	> 27.5 µM	–
N#CCN(Cc1ccccc1)[C@@H]1CCC[C@]1(O)C#Cc1ccc2c(c1)OCO2	> 200 µM	20.4 µM	–
COc1cc2nncc(Cl)c2cc1OC	> 95.5 µM	79.4 µM	–
N#CCc1nc(C#N)c(N)o1	51.3 µM	> 200 µM	–
COc1ccc(-c2c(C3=NCCCN3)nnn2-c2ccc([N+](=O)[O-])cc2)cc1	> 13.8 µM	> 13.8 µM	–
O=C(O)c1c(O)ccc(O)c1C(=O)Nc1ccc(/C=C/c2ccc(NC(=O)c3c(O)ccc(O)c3C(=O)O)cc2S(=O)(=O)O)c(S(=O)(=O)O)c1	17.8 µM	> 200 µM	–
COc1cc(-c2cc(OC)c(OC)c3ccc(Br)cc23)c2cc(Br)ccc2c1OC	> 200 µM	102 µM	–
COc1ccc(-c2cc(=O)c3c(O)cc(O)cc3o2)cc1Oc1ccc(-c2cc(=O)c3c(O)cc(O)cc3o2)cc1	> 200 µM	2.69 µM	–
NC(=O)CNC(=O)c1ccc(NC(=O)c2ccccc2SC(=O)CCCC[n+]2ccccc2)cc1	15.8 µM	50.1 µM	–
COC(=O)[C@]1(C)C(OC)=CC(=O)C2C1[C@H]1CCC[C@@H]21 (stereo partly drawn)	–	–	inactive
COc1ccc2nc3ccccc3c(NCCCN(CCCl)CCCl)c2c1	–	–	inactive
N#CCCN(CCC#N)c1ccc(/C=C2\N=C(c3cc([N+](=O)[O-])ccc3Cl)OC2=O)cc1	> 2.34 µM	0.575 µM	–
N=C1N(c2ccccc2)C(=S)C(=Nc2ccccc2)N1c1ccccc1	> 200 µM	3.89 µM	–
COc1cc(C(=O)NCCS(=O)(=O)O)cc(OC)c1OC	> 724 µM	631 µM	–
[N-]=[N+]=NC1(c2ccccc2)C(=O)Nc2ccccc2C1=O (stereo not drawn)	> 58.9 µM	30.2 µM	–
Cc1cc(=O)oc2c3c(cc(OC(C)C)c12)O[C@H](C)[C@@H](C)C3=O	> 200 µM	40.7 µM	–
